Laboratory results taken from patent US20140005163A1 (NOVARTIS AG, priority 2010, published 2014).
≈ marks a conversion by molar mass, not a printed value.

Assays:
Solubility at pH 6.8 = format: physicochemical; conditions: pH 6.8, aqueous buffer, thermodynamic from solid; read-out: solubility
Method in brief: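 Following the procedure of Zhou et al. (2007), compound solubility was determined at pH 6.8.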

PI3K alpha = biological target: T1, PI3K alpha (Homo sapiens, UniProt P42336); assay: PI3K alpha kinase assay (Kinase-Glo luminescence); format: biochemical
T1 construct: p85(iSH2) fusion partner (see partner chain) (N); His tag (C); made in house; host or cells: baculovirus; Tn5 (Trichoplusia ni) or TiniPro insect cells
Method in brief: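 Compounds are titrated at 8 concentrations and mixed with PI3Kα protein (EMV B1075, 10 nM) in phosphatidylinositol (10 μg/mL). ATP at 1 μM starts the 60-minute room-temperature reaction, which is stopped with Kinase-Glo before luminescence reading. Four-parameter curve fitting gives IC50.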

[1] = system: PKB Ser473 phosphorylation in Rat1-myr-HA-p110 alpha cells; assay: Reverse protein array assay, PKB Ser473 phosphorylation in Rat1-myr-p110 alpha cells; format: cell-based; conditions: 0.5 h, pAkt Ser473, 30 minutes compound incubation, read-out: p-PKB IC50
Method in brief: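 After at least 20 h of culture, the p110 isoform-transfected Rat1 lines receive compound in an 8-step dilution series, keeping DMSO at 0.2%, for 30 minutes. Cells are then lysed and lysates arrayed on chips for fluorescence detection of Ser473-phosphorylated PKB.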

T1 sequence (P42336 with tags, fused parts or gaps limits assumed): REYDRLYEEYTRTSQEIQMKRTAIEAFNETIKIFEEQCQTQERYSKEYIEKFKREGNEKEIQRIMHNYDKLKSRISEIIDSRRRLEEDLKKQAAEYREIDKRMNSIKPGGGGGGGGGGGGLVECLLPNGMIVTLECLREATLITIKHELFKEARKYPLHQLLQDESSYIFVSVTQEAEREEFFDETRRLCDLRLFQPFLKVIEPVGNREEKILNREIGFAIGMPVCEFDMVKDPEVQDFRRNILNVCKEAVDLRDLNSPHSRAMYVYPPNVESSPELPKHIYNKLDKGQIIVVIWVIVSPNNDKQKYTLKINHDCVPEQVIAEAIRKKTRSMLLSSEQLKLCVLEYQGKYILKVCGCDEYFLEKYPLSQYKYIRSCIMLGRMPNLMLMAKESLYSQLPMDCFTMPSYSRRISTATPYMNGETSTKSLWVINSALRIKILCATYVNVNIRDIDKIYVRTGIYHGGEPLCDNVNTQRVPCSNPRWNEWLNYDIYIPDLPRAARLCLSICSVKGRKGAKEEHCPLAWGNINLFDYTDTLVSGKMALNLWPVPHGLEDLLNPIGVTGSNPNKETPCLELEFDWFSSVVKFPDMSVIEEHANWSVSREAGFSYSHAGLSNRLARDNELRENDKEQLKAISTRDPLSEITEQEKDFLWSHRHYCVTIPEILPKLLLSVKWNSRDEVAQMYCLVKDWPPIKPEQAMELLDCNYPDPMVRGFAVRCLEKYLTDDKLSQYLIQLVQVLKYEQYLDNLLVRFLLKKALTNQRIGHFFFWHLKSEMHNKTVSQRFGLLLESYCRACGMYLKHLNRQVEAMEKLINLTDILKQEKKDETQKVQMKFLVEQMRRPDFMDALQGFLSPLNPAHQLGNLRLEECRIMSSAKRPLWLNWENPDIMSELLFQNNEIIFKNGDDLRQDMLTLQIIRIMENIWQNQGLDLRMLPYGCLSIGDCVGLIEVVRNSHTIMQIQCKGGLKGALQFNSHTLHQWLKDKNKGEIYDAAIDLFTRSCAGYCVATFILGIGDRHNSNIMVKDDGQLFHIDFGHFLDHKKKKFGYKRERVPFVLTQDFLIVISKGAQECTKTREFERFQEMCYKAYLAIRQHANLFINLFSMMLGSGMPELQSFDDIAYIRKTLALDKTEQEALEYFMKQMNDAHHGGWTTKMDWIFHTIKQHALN

Structure (SMILES) | solubility (Solubility at pH 6.8) [µg/mL] | IC50 (PI3K alpha) [nM] | IC50 [1] [nM]
COc1ccc(-c2ccc3ncc4c(c3c2)n(-c2cc(C)nn2C)c(=O)n4C)cc1OC [Example 1.4, 8-(3,4-Dimethoxy-phenyl)-1-(2,5-dimethyl-2H-pyrazol-3-yl)-3-methyl-1,3-dihydro-imidazo[4,5-c]quinolin-2-one] | 4 (≈ 9.31 µM) | 39 | 22
CCn1cc(-n2c(=O)n(C)c3cnc4ccc(-c5ccc(OC)nc5)cc4c32)c(C)n1 [Example 2.7, 1-(1-Ethyl-3-methyl-1H-pyrazol-4-yl)-8-(6-methoxy-pyridin-3-yl)-3-methyl-1,3-dihydro-imidazo[4,5-c]quinolin-2-one] | 3 (≈ 7.24 µM) | 24 | 28
CCOc1ccc(-c2ccc3ncc4c(c3c2)n(-c2c(C)nn(C)c2C)c(=O)n4C)cn1 [Example 3.3, 8-(6-Ethoxy-pyridin-3-yl)-3-methyl-1-(1,3,5-trimethyl-1H-pyrazol-4-yl)-1,3-dihydro-imidazo[4,5-c]quinolin-2-one] | 104 (≈ 243 µM) | 146 | 50
CCOc1ccc(-c2ccc3ncc4c(c3c2)n(-c2cn(C(C)C)nc2C)c(=O)n4C)cn1 [Example 3.7, 8-(6-Ethoxy-pyridin-3-yl)-1-(1-isopropyl-3-methyl-1H-pyrazol-4-yl)-3-methyl-1,3-dihydro-imidazo[4,5-c]quinolin-2-one] | 3 (≈ 6.78 µM) | 61 | 43
Cc1nn(C)cc1-n1c(=O)n(C)c2cnc3ccc(-c4ccc(N(C)C)nc4)cc3c21 [Example 4.5, 8-(6-Dimethylamino-pyridin-3-yl)-1-(1,3-dimethyl-1H-pyrazol-4-yl)-3-methyl-1,3-dihydro-imidazo[4,5-c]quinolin-2-one] | 7 (≈ 16.9 µM) | 23 | 22
Cc1cc(-n2c(=O)n(C)c3cnc4ccc(-c5ccc(N(C)C)nc5)cc4c32)n(C)n1 [Example 4.6, 8-(6-Dimethylamino-pyridin-3-yl)-1-(2,5-dimethyl-2H-pyrazol-3-yl)-3-methyl-1,3-dihydro-imidazo[4,5-c]quinolin-2-one] | 6 (≈ 14.5 µM) | 48 | 30
Cc1nn(C)cc1-n1c(=O)n(C)c2cnc3ccc(-c4ccc(N5CCC5)nc4)cc3c21 [Example 5.1, 8-(6-Azetidin-1-yl-pyridin-3-yl)-1-(1,3-dimethyl-1H-pyrazol-4-yl)-3-methyl-1,3-dihydro-imidazo[4,5-c]quinolin-2-one] | 3 (≈ 7.05 µM) | 30 | 7

Compounds with a lower IC50 (PI3K alpha), results first:

solubility (Solubility at pH 6.8) [µg/mL] | IC50 (PI3K alpha) [nM] | IC50 [1] [nM] | Structure (SMILES)
5 (≈ 10.9 µM) | 10 | 16 | COc1ccc(-c2ccc3ncc4c(c3c2)n(-c2cn(C(C)C)nc2C)c(=O)n4C)cc1OC [Example 1.5, 8-(3,4-Dimethoxy-phenyl)-1-(1-isopropyl-3-methyl-1H-pyrazol-4-yl)-3-methyl-1,3-dihydro-imidazo[4,5-c]quinolin-2-one]
65 (≈ 147 µM) | 8 | 10 | CCn1cc(-n2c(=O)n(C)c3cnc4ccc(-c5ccc(OC)c(OC)c5)cc4c32)c(C)n1 [Example 1.6, 8-(3,4-Dimethoxy-phenyl)-1-(1-ethyl-3-methyl-1H-pyrazol-4-yl)-3-methyl-1,3-dihydro-imidazo[4,5-c]quinolin-2-one]
13 (≈ 32.5 µM) | 17 | 18 | COc1ccc(-c2ccc3ncc4c(c3c2)n(-c2cn(C)nc2C)c(=O)n4C)cn1 [Example 2.5, 1-(1,3-Dimethyl-1H-pyrazol-4-yl)-8-(6-methoxy-pyridin-3-yl)-3-methyl-1,3-dihydro-imidazo[4,5-c]quinolin-2-one]
65 (≈ 134 µM) | 21 | 10 | CCOc1ccc(-c2ccc3ncc4c(c3c2)n(-c2cn(CC(=O)N(C)C)nc2C)c(=O)n4C)cn1 [Example 3.9, 2-{4-[8-(6-Ethoxy-pyridin-3-yl)-3-methyl-2-oxo-2,3-dihydro-imidazo[4,5-c]quinolin-1-yl]-3-methyl-pyrazol-1-yl}-N,N-dimethyl-acetamide]
